Assay results: the CheMixHub viscosity set

Assay: xn = mol fraction of the nth substance listed

OCCCO + CC#N
viscosity [mPa·s], 100 kPa
Conditions	x2 = 0.1027	x2 = 0.2001	x2 = 0.3048	x2 = 0.4057	x2 = 0.5001	x2 = 0.6001	x2 = 0.6993	x2 = 0.8002	x2 = 0.8956
293.15 K	31.4	19.6	11.4	6.84	4.12	2.59	1.59	0.92	0.58
298.15 K	24.7	14.5	8.12	4.69	2.89	1.91	1.23	0.73	0.47
303.15 K	19.4	11.2	5.78	3.33	2.21	1.37	0.89	0.58	0.39

COCC(C)OCC(C)O (centres undefined) + CCO
viscosity [mPa·s], 101.33 kPa
Conditions	298.15 K	308.15 K	318.15 K
x1 = 0.05	1.237	1.014	0.84
x1 = 0.1	1.385	1.119	0.92
x1 = 0.1501	1.525	1.218	0.996
x1 = 0.2	1.661	1.32	1.073
x1 = 0.2501	1.803	1.421	1.148
x1 = 0.3	1.941	1.521	1.225
x1 = 0.35	2.081	1.623	1.301
x1 = 0.4001	2.216	1.723	1.379
x1 = 0.45	2.35	1.82	1.451
x1 = 0.5	2.485	1.916	1.525
x1 = 0.5497	2.616	2.006	1.594
x1 = 0.6	2.744	2.099	1.662
x1 = 0.6497	2.871	2.192	1.726
x1 = 0.7001	3.001	2.281	1.796
x1 = 0.75	3.125	2.365	1.857
x1 = 0.8001	3.241	2.449	1.922
x1 = 0.8497	3.359	2.531	1.979
x1 = 0.8996	3.472	2.61	2.036
x1 = 0.9498	3.579	2.686	2.09
